Measurements reported in paper PMC11224556, “Next-generation of BBQ analogues that selectively target breast cancer” (Frontiers in Chemistry, 2024).
Read-outs that look alike come from different tables or passages of the source.

Legend:
Assay type in all cases: cell-based, human
H460 (lung) cells = assay: MTT growth inhibition assay (72 h)
Description: (§1) Each BBQ analogue, 2-14 was screened for their growth inhibition ability (GI50) in a broad panel of cancer cell lines and a non-cancer breast cell line (MCF10A), using the MTT growth inhibition assay (Table 1) ([Baker et al., 2021b]). The cancer panel comprised HT29 (colorectal), U87 (brain), SJ-G2 (brain), A2780 (ovary), Du145 (prostate), BE2-C (neuronal), MIA (pancreas), H460 (lung, ER+), A431 (vulva, ER+ (estrogen receptor positive)), and a wide selection of breast cancer cell lines with varying receptor status including MCF-7 (ER + luminal A), T47D (ER/PR+ (progesterone receptor positive)luminal A), ZR-75-1 (ER/PR + luminal A), BT-474 (ER/PR/HER2+ luminal B), SKBR-3 (HER2+), MDA-MB-468, BT20, and MDA-MB-231 (basal, triple negative (TN) for ER, PR, and HER2).
(§2) Stock solutions were prepared as follows and stored as 20 mM DMSO solutions at −20 °C. All cell lines were cultured in a humidified atmosphere 5% CO2 at 37 °C. The cancer cell lines were maintained in Dulbecco’s modified Eagle’s medium (DMEM) (Trace Biosciences, Australia) supplemented with 10% foetal bovine serum (FBS), 10 mM sodium bicarbonate, penicillin (100 IU/mL), streptomycin (100 μg/mL), and glutamine (4 mM). The non-cancer MCF10A cell line was cultured in DMEM:F12 (1:1) cell culture media, 5% heat inactivated horse serum, supplemented with penicillin (50 IU/mL), streptomycin (50 μg/mL), 20 mM Hepes, L-glutamine (2 mM), epidermal growth factor (20 ng/mL), hydrocortisone (500 ng/mL), cholera toxin (100 ng/mL), and insulin (10 μg/mL). The AhR reporter cell line HT29-Lucia™ (Invivogen, United States) was maintained in DMEM supplemented with 10% heat inactivated FBS, L-glutamine (2 mM), penicillin (100 IU/mL), streptomycin (100 μg/mL), 100 μg/mL Normocin™, and 100 μg/mL of the selective antibiotic Zeocin™. All cell lines were purchased from the American Type Culture Collection (ATCC), except for A2780 and A431 which were from the European Collection of Authenticated Cell Cultures (ECACC), and SJ-G2 cell line which was from Dr Mary Danks, St Jude Children’s Research hospital, Memphis, TN.
(§3) Cells in logarithmic growth were transferred to 96-well plates. Cytotoxicity was determined by plating cells in duplicate in 100 μL medium at a density of 2,500–4,000 cells/well in 96 well plates. On day 0, (24 h after plating) when the cells were in logarithmic growth 100 μL medium with or without the test agent was added to each well. After 72 h drug exposure growth inhibitory effects were evaluated using the MTT (3-[4,5-dimethylthiazol-2-yl]-2,5-diphenyltetrazolium bromide) assay with absorbance read at 540 nm. An eight-point dose response curve was produced, using MS Excel software. From these dose-response curves, the GI50 value was calculated, representing the drug concentration at which cell growth is 50% inhibited based on the difference between the optical density values on day 0 and those at the end of drug exposure ([Bradshaw et al., 2008]; [Zhang et al., 2009]). Each data point was conducted in duplicate and the mean ± S.E.M. calculated from four to five replicates (n = 4 or 5), which were performed on separate occasions and separate cell line passages. Where shown, significant test results were determined using T-test analysis at p < 0.01 and p < 0.05 with a two tail distribution.

A2780 (ovary) cells = assay: MTT growth inhibition assay (72 h)
Description: as §1, §2, §3

A431 (vulva/skin) cells = assay: MTT growth inhibition assay (72 h)
Description: as §1, §2, §3

U87 (brain) cells = assay: MTT growth inhibition assay (72 h); details: U87, Brain (GBM)
Description: as §1, §2, §3

HT29 (colorectal) cells = assay: MTT growth inhibition assay (72 h)
Description: as §1, §2, §3

[1] = tested on: ZR-75-1 breast cancer cells; assay: MTT growth inhibition assay (72 h); details: ZR-75-1, Breast (ER/PR)
Description: as §1, §2, §3

BT20 breast cancer cells = assay: MTT growth inhibition assay (72 h)
Description: as §1, §2, §3

[2] = tested on: MCF-7 breast cancer cells; assay: MTT growth inhibition assay (72 h)
Description: as §1, §2, §3

[3] = tested on: MDA-MB-468 breast cancer cells; assay: MTT growth inhibition assay (72 h); details: MDA-MB-468, Breast (TN)
Description: as §1, §2, §3

BE2-C (neuronal) cells = assay: MTT growth inhibition assay (72 h); details: Neuron
Description: as §1, §2, §3

MIA (pancreas) cells = assay: MTT growth inhibition assay (72 h)
Description: as §1, §2, §3

[4] = tested on: SKBR3 breast cancer cells; assay: MTT growth inhibition assay (72 h)
Description: as §1, §2, §3

[5] = tested on: MDA-MB-231 breast cancer cells; assay: MTT growth inhibition assay (72 h); details: MDA-MB-231, Breast (TN)
Description: as §1, §2, §3

T47D breast cancer cells = assay: MTT growth inhibition assay (72 h); details: Breast (ER/PR)
Description: as §1, §2, §3

[6] = tested on: BT474 breast cancer cells; assay: MTT growth inhibition assay (72 h)
Description: as §1, §2, §3

Du145 (prostate) cells = assay: MTT growth inhibition assay (72 h)
Description: as §1, §2, §3

SJ-G2 (brain) cells = assay: MTT growth inhibition assay (72 h); details: SJ-G2, Brain (GBM)
Description: as §1, §2, §3

[7] = tested on: MCF10A normal breast cells; assay: MTT growth inhibition assay (72 h)
Description: as §1, §2, §3

[8] = tested on: broad panel of cancer cell lines and non-cancer breast cell line MCF10A; assay: MTT growth inhibition: GI50 ranges and selectivity across the cell line panel; details: for fold more potent than head group substituted analogues 3, 4, 6, 7, 8 and 9: across the cell lines examined (Table 1)
Description: as §1, §2, §3

[9] = Homo sapiens, NCI-H460, H460, Lung (ER)
[10] = Homo sapiens, A-431, A431, Skin (ER)
[11] = Homo sapiens, HT-29, HT29, Colon
[12] = Homo sapiens, BT-20, BT20, Breast (TN)
[13] = Homo sapiens, MCF7, MCF-7, Breast (ER)
[14] = Homo sapiens, SK-BR-3, SKBR3, Breast (HER2)
[15] = Homo sapiens, BT-474, BT474, Breast (ER/PR/HER2)

Molecule	GI50 (H460 (lung) cells; H460, Lung (ER)) [µM]	GI50 (A2780 (ovary) cells) [µM]	GI50 (A431 (vulva/skin) cells; A431, Skin (ER)) [µM]	GI50 (U87 (brain) cells) [µM]	GI50 (H460 (lung) cells; [9]) [µM]	GI50 (A2780 (ovary) cells; Homo sapiens) [µM]	GI50 (A431 (vulva/skin) cells; [10]) [µM]	GI50 (U87 (brain) cells; Homo sapiens) [µM]	GI50 ([1]; Homo sapiens) [µM]	GI50 (BT20 breast cancer cells; [12]) [µM]	GI50 [2, 13] [µM]	GI50 (BE2-C (neuronal) cells; Homo sapiens, BE(2)-C) [µM]	GI50 (MIA (pancreas) cells; Homo sapiens) [µM]	GI50 [4, 14] [µM]	GI50 ([5]; Homo sapiens) [µM]	GI50 (T47D breast cancer cells; Homo sapiens) [µM]	GI50 [6, 15] [µM]	GI50 (Du145 (prostate) cells; Homo sapiens, DU-145) [µM]	GI50 (SJ-G2 (brain) cells; Homo sapiens) [µM]	GI50 ([7]; Homo sapiens, MCF-10A) [µM]	other results
9-Methyl-7H-benzo[de]benzo[4,5]imidazo[2,1-a]isoquinolin-7-one (8a) and 12-methyl-7H-benzo[de]benzo[4,5]imidazo[2,1-a]isoquinolin-7-one (8b) [Compound 8]	27 ± 6.7	11 ± 0.58	0.56 ± 0.14	38 ± 2.5	–	–	–	–	–	–	–	–	–	–	–	–	–	–	–	–	GI50 (HT29 (colorectal) cells; HT29, Colon): 3.7 ± 0.69 µM; GI50 [1]: 0.59 ± 0.38 µM; GI50 (BT20 breast cancer cells; BT20, Breast (TN)): 1.4 ± 0.8 µM; GI50 ([2]; MCF-7, Breast (ER)): 2.8 ± 0.61 µM; GI50 [3]: 0.056 ± 0.024 µM; GI50 (BE2-C (neuronal) cells): 15 ± 10 µM; GI50 (MIA (pancreas) cells): 20 ± 10 µM; GI50 ([4]; SKBR3, Breast (HER2)): 0.27 ± 0.027 µM; GI50 [5]: 8.2 ± 3.3 µM; GI50 (T47D breast cancer cells): 0.8 ± 0.11 µM; GI50 ([6]; BT474, Breast (ER/PR/HER2)): 4.6 ± 2.7 µM; GI50 (Du145 (prostate) cells): 38 ± 6.9 µM; GI50 (SJ-G2 (brain) cells): 24 ± 8.4 µM; GI50 [7]: 2 ± 1.3 µM
O=c1c2cccc3cccc(c4n1Cc1ccccc1N=4)c32 [Compound 13, 7H,9H-benzo[4,5]isoquinolino[1,2-b]quinazolin-7-one]	–	–	–	–	> 50	> 50	43 ± 4.4	> 50	35 ± 1	> 50	32 ± 1.9	42 ± 1.5	38 ± 1	47 ± 2.7	> 50	40 ± 3.3	> 50	> 50	56 ± 3.7	38 ± 1.2	GI50 (HT29 (colorectal) cells; [11]): > 50 µM; GI50 ([3]; Homo sapiens): 36 ± 3.8 µM
3-Nitro-7H-benzo[de]benzo[4,5]imidazo[2,1-a]isoquinolin-7-one (11a) and 4-nitro-7H-benzo[de]benzo[4,5]imidazo[2,1-a]isoquinolin-7-one (11b) [Compound 11]	0.00019 ± 0.0001	0.01 ± 0.003	0.088 ± 0.031	0.55 ± 0.11	–	–	–	–	–	–	–	–	–	–	–	–	–	–	–	–	fold more potent than head group substituted analogues 3, 4, 6, 7, 8 and 9 [8]: > 10 fold; GI50 (HT29 (colorectal) cells; HT29, Colon): 0.3 ± 0.11 µM; GI50 [1]: 0.0027 ± 0.0022 µM; GI50 (BT20 breast cancer cells; BT20, Breast (TN)): 0.0084 ± 0.004 µM; GI50 ([2]; MCF-7, Breast (ER)): 0.0065 ± 0.0038 µM; GI50 [3]: 0.0015 ± 0.0008 µM; GI50 (BE2-C (neuronal) cells): 0.74 ± 0.13 µM; GI50 (MIA (pancreas) cells): 1.4 ± 0.45 µM; GI50 ([4]; SKBR3, Breast (HER2)): 0.036 ± 0.006 µM; GI50 [5]: 2.1 ± 0.29 µM; GI50 ([6]; BT474, Breast (ER/PR/HER2)): 0.15 ± 0.053 µM; GI50 (Du145 (prostate) cells): 0.32 ± 0.049 µM; GI50 (SJ-G2 (brain) cells): 0.61 ± 0.14 µM; GI50 [7]: 0.0031 ± 0.002 µM
O=c1c2cccc3cccc(c32)c2nc3ccccc3n12 [Compound 5, 7H-Benzo[de]benzo[4,5]imidazo[2,1-a]isoquinolin-7-one]	–	–	–	–	0.61 ± 0.13	2.2 ± 0.21	0.05 ± 0.013	7 ± 0.033	0.026 ± 0.015	0.41 ± 0.39	2.1 ± 0.44	5.1 ± 0.74	5.2 ± 0.73	0.032 ± 0.014	5.5 ± 1.8	0.2 ± 0.073	1.5 ± 1.3	4.1 ± 0.03	4.6 ± 0.23	3.2 ± 0.32	fold greater response (selectivity) in MDA-MB-468 than in normal MCF10A breast cells ([8]; GI50 MCF10A / GI50 MDA-MB-468): 3,200 fold; growth inhibition compared with normal cells (fold, range over cell lines) ([8]; H460, A431, T47D, ZR-75-1, SKBR3, MDA-MB-468, BT20 vs MCF10A): 5 to 3200 fold; GI50 ([8]; Homo sapiens, T47D, ZR-75-1, SKBR3, MDA-MB-468 and BT20, read-out: GI50 (range over cell lines)): 0.001 to 0.41 µM; GI50 ([8]; Homo sapiens, all other cell populations (than H460, A431, T47D, ZR-75-1, SKBR3, MDA-MB-468, BT20), read-out: GI50 (range over cell lines)): 1.5 to 7 µM; GI50 ([8]; Homo sapiens, other cell lines HT29, U87, SJ-G2, A2780, DU145, BE2-C, MIA, MDA-MB-231, read-out: GI50 (range over cell lines)): 2.1 to 7 µM; fold more potent than head group substituted analogues 3, 4, 6, 7, 8 and 9 [8]: > 10 fold; GI50 ([8]; select breast cancer cell lines MCF-7, T47D, ZR-75-1, SKBR3, MDA-MB-468, BT20, BT474, read-out: GI50 values (range over cell lines)): 0.001 to 2.1 µM; GI50 (HT29 (colorectal) cells; [11]): 2.1 ± 0.3 µM
O=C(O)c1ccc2c3c1cccc3c(=O)n1c3ccccc3nc21 [Compound 14, reference compound]	–	–	–	–	20 ± 0.33	12 ± 0.91	28 ± 5.1	25 ± 1.7	24 ± 3.3	50	> 50	6.9 ± 1.6	20 ± 0.67	21 ± 0.67	50	16 ± 0.58	> 50	21 ± 2	13 ± 1.2	15 ± 0.58	GI50 ([3]; Homo sapiens): 6.13 ± 3.05 µM
